This note sets out measurements from PMC4550478, “Metronidazole-triazole conjugates: Activity against Clostridium difficile and parasites” (European Journal of Medicinal Chemistry, 2015).

In experiment [1] the test system is G. lamblia BRIS/87/HEPU/713 (713). Description: ATP-bioluminescence growth and survival assay, G. lamblia 713. The conditions noted are these: Giardia duodenalis, read-out: EC50 G. lamblia 713. It counts as cell-based. The procedure: (§1) Compounds were tested for antiparasitic activity against E. histolytica (HM1:1MSS strain) and G. lamblia (WB, BRIS/87/HEPU/713 (713), BRIS/83/HEPU/106 (106) and the metronidazole resistant syngeneic line 713-M3 [[15,16]]) using an ATP-bioluminescence based screen for cell growth and survival [[17,18]]. Assay plates were inoculated with trophozoites (5 × 10^3 parasites/well) and incubated in the GasPak™ EZ Anaerobe Gas Generating Pouch Systems (VWR, West Chester, PA) to maintain anaerobic conditions throughout the incubation period. The assays were performed in triplicate using the CellTiter-Glo Luminescent Cell Viability Assay. Metronidazole was used as a positive control.
(§2) Trophozoites of E. histolytica strain HM1:IMSS and G. lamblia strains WB, BRIS/87/HEPU/713 (713),^10 BRIS/83/HEPU/106 (106)^11 and the metronidazole resistant syngenic line 713-M3^10,11 were axenically maintained in TYI-S-33 medium supplemented with penicillin (100 U/ml), streptomycin (100 µg/ml).^12 E. histolytica and G. lamblia trophozoites were counted using a particle counter (Beckman Coulter, Fullerton, CA). All experiments were performed using trophozoites harvested during the logarithmic phase of growth.
(§3) A three-fold serial dilution was then performed yielding a concentration range 0.25-625 µM. From this dilution plate, 4 µL were transferred into the 96-well screen plates followed by addition of 96 µL of trophozoites (5,000 parasites) to yield a final 8-point concentration range spanning 0.01- 25 µM. Assay plates were incubated for 48 h at 37 °C in the GasPak^TM EZ Anaerobe Gas Generating Pouch Systems (VWR, West Chester, PA) to maintain anaerobic condition throughout the incubation period. The assays were performed in triplicate using the CellTiter-Glo Luminescent Cell Viability Assay.^13

For experiment [2], the system named is E. histolytica HM1:IMSS trophozoites. Description: ATP-bioluminescence growth and survival assay, E. histolytica. As to conditions: Entamoeba histolytica; MtzS, 48 h, anaerobic, n = 3. It counts as cell-based, Entamoeba histolytica. As for the experimental part: as §1, §2, §3
Experiment [3] can be described thus: MIC against ESKAPE pathogens, aerobic. As to conditions: aerobic conditions, single concentration screen, n = 3; read-out: MIC ESKAPE bacteria. It counts as cell-based. The procedure:
All compounds were tested for activity against a set of anaerobic C. difficile bacteria (630 ATCC BAA-1382, NAP1/027 M7404, NAP1/027 ATCC BAA-1803, VPI10463 ATCC 43255, CD26A54_S and CD26A54_R) and representative ESKAPE pathogens S. aureus (MRSA ATCC 43300), E. coli (ATCC 25922), K. pneumoniae (ATCC 700603), A. baumannii (ATCC 19606) and P. aeruginosa (ATCC 27853) using a standard broth microdilution assay. Selected compounds were tested for activity against H. pylori strains (26695, and clinical isolates MtzS 13/25, MtzR 98/285 and MtzR 13/61) using agar plate dilution, and for antimicrobial activity against twelve Gram-positive bacterial strains: Enterococcus faecalis (VanA clinical isolate), Enterococcus faecium (MDR VanA ATCC 51559), Streptococcus pneumoniae (MDR ATCC 700677), S. aureus (MRSA ATCC 43300, MRSA clinical isolate, MRSA/DRSA clinical isolate, GISA NARSA NRS 1, GISA NARSA NRS 17, VRSA NARSA VRS1, VRSA NARSA VRS4 and VRSA NARSA VRS10) using broth microdilution. C. difficile strains were grown at 37 °C in a COY anaerobic chamber (5% H2, 10% CO2, 85% N2). H. pylori strains were grown at 37 °C under a microaerobic atmosphere (5% O2, 10% CO2). All facultative anaerobic bacteria were grown at 37 °C with normal atmospheric oxygen levels. […] Positive growth control of bacteria and DMSO as well as a negative control of only media were included for every plate. Full assay details are provided in the supplementary information.
MICs were determined by a two-fold serial broth micro dilution according to the recommendation of CLSI standards with an inoculum of 5 × 10^5 CFU/mL^4 The compounds along with standard antibiotics were serially diluted twofold across the wells of 96-well non-binding surface plates (NBS, Corning). […] Gram-positive and Gram-negative bacteria were cultured in Mueller Hinton broth (MHB) (Bacto laboratories, Cat. no. 211443) at 37 °C overnight. A sample of each culture was then diluted 40-fold in fresh MHB broth and incubated at 37 °C for 2-3 h. The resultant mid-log phase cultures were diluted to the final concentration of 5 × 10^5 CFU/mL, then 50 μL was added to each well of the compound containing 96-well plates. All the plates were covered and incubated at 37 °C for 24 h.

The subject of experiment [4] is G. lamblia BRIS/83/HEPU/106 (106). The experiment can be described thus: ATP-bioluminescence growth and survival assay, G. lamblia 106. In kind it is cell-based. As to conditions: Giardia duodenalis, read-out: EC50 G. lamblia 106. The procedure:
as §1, §2, §3

As for `Cc1ncc([N+](=O)[O-])n1CCn1cc(-c2ccsc2)nn1` [Compound 4n, 1-(2-(2-methyl-5-nitro-1H-imidazol-1-yl)ethyl)-4-(thiophen-3-yl)-1H-1,2,3-triazole], the results for the EC50 in experiment [1], in experiment [2] and in experiment [4] were 180 nM, 3800 nM and 340 nM, respectively. The minimum inhibitory concentration (MIC) in experiment [3] was > 32 µg/mL.
